# Experiments:
# [1] = Stability (1): storage in a sealed vessel at 60° C. and a relative humidity of 30%, percent remaining by HPLC; assay type: physicochemical; settings: relative humidity 30%; for Percent remaining (%) Day 3 / Percent remaining (%) Day 14 / Percent remaining (%) Day 23: sealed vessel; for Percent remaining (%) Day 3: Day 3, HPLC; for Percent remaining (%) Day 14: Day 14, HPLC; for Percent remaining (%) Day 23: Day 23, HPLC
# Procedure: (§1) The crystalline 5′-O-(4,4′-dimethoxytrityl)pseudouridine produced in Example 1 was maintained in a sealed vessel at 60° C. and a relative humidity of 30%. Thereafter, the percent remaining of the compound was determined through HPLC, and the value was compared with that of the same compound in amorphous form, which had been separately prepared, so as to evaluate stability.
# [2] = Stability (2): storage in a desiccator at 25±2° C. and a relative humidity of 33%, 57% or 75%, percent remaining by HPLC; assay type: physicochemical; settings: fourteen days; for Percent remaining (%) RH 33% / Percent remaining (%) RH 57% / Percent remaining (%) RH 75%: desiccator, HPLC
# Procedure: as §1, with “desiccator” for “sealed vessel”, “25±2°” for “60°”, “33%, 57%, or 75%. Fourteen days after,” for “30%. Thereafter,”, “stability. […] At a relative humidity of 75%, the stability clearly varied between the two samples.” for “stability.”
SMILES,Percent remaining (%) Day 3 [1],Percent remaining (%) Day 14 [1],Percent remaining (%) Day 23 [1],Percent remaining (%) RH 33% [2],Percent remaining (%) RH 57% [2],Percent remaining (%) RH 75% [2],thermal stability compared with the compound of amorphous form [1],"stability against moisture compared with the amorphous form ([2]; relative humidity 33%, 57% or 75%)"
"COc1ccc(C(OC[C@H]2O[C@@H](c3c[nH]c(=O)[nH]c3=O)[C@H](O)[C@@H]2O)(c2ccccc2)c2ccc(OC)cc2)cc1 [Amorphous, 5′-O-(4,4′-dimethoxytrityl)pseudouridine, reference compound]",97.8%,88.6%,62.1%,98.0%,96.7%,0.1%,–,–
"COc1ccc(C(OC[C@H]2O[C@@H](c3c[nH]c(=O)[nH]c3=O)[C@H](O)[C@@H]2O)(c2ccccc2)c2ccc(OC)cc2)cc1 [Crystalline, 5′-O-(4,4′-dimethoxytrityl)pseudouridine]",99.0%,97.6%,95.7%,98.7%,98.5%,60.7%,higher thermal stability,more stable against moisture
